The test has as its target T1, MAN2A1 (Homo sapiens, UniProt Q16706).
T1 construct: expressed in transfected cells
T1 sequence (Q16706 1-1144): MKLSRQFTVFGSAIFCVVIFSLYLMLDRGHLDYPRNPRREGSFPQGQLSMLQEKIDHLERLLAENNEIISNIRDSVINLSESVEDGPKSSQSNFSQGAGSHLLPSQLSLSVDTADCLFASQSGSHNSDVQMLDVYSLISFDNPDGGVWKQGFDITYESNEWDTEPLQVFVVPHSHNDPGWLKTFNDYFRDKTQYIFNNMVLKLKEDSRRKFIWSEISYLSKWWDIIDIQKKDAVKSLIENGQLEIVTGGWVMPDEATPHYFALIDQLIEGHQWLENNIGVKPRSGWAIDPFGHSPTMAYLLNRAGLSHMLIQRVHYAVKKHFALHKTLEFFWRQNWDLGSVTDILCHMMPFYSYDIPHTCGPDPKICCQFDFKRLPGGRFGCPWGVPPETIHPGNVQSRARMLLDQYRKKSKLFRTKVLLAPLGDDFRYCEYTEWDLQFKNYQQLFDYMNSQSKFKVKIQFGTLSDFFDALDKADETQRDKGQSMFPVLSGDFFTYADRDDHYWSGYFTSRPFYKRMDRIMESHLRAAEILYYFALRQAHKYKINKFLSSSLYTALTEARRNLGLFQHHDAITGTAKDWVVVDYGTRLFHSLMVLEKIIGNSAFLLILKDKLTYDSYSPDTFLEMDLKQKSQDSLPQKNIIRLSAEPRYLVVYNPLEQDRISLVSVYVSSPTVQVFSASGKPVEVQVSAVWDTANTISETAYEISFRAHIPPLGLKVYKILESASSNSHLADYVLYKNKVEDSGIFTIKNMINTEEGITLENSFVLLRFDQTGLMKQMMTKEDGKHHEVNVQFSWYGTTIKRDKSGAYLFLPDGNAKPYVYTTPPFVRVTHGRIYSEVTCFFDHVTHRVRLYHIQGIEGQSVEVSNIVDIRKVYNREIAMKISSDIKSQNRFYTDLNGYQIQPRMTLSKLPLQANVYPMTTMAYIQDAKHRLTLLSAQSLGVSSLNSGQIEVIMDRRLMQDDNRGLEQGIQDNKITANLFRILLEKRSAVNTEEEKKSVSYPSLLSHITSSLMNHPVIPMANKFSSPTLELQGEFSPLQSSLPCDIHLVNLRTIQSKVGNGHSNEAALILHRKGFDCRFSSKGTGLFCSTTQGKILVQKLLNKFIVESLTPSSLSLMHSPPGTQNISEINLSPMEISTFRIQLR
The experiment in a line: 4-MU-α-man activity assay in overexpressed cell lysates. The test is classed as biochemical. The text has this: Finally, selectivity versus a panel of related exo-mannosidases was investigated. We first tested inhibition against all five human GH38 retaining α-mannosidases in overexpressed cell lysates using 4-methylumbelliferyl-α-mannoside (4-MU-α-man): Golgi mannosidase II and IIx (MAN2A1 and MAN2A2), cytosolic MAN2C1 and lysosomal MAN2B1 and MAN2B2. This α-mannosidase family follows a different conformational itinerary than GH47: ^0S2 → B2,5 → ^1S5.[35] […] Of note, the presence of cobalt has been associated with conformational changes in the active site of some GH38 α-mannosidases, which might affect the binding interaction with inhibitors.[36] Nevertheless, additional research is required to explore which specific metal ion is present in the MAN2C1 active site in its in vivo state.
Trans-Cyclosulfamidate Cyclitols Males et al.
2.3 GH38 α-mannosidases and GH2 β-mannosidase inhibition studies
All chemicals were of analytical grade and purchased from Sigma-Aldrich unless stated otherwise.
Optimal stability of cell homogenates and enzyme working stocks was ensured by preparation and temporary storage on ice. Cell homogenates were prepared and used on the same day. Protein concentrations were quantified using the Pierce BCA Protein Assay Kit (ThermoFisher). Protein samples were measured in clear flat-bottom polystyrene 96 well microplates (Greiner Bio-One) using a EMax Plus Microplate Reader (Molecular Devices). Activity measurements of human GH38 α-mannosidases and bacterial β-mannosidase BtMan2A were performed in black flat-bottom polystyrene 96 wells microplates (Greiner Bio-One) and total fluorescence was measured using a Perkin Elmer LS-55 fluorescence spectrometer at wavelengths λex = 366 and λem = 445 nm, with the signal optimized for medium gain readings. The fluorescence values of each enzyme sample were corrected for the background signal of a blank sample containing no enzyme. In the case of IC50 determinations, values were normalized against a control sample containing enzyme without added inhibitor. For a single experiment, three separate curves were fitted from a technical triplicate by setting the inhibitor concentration in µM against the normalized response using GraphPad Prism 8.4.2 software. The Prism functions ‘[inhibitor] versus normalized response’ and ‘[inhibitor] versus normalized response -- variable slope’ were compared for each curve using the Akaike’s Information Criterion method to select the preferred model. Reported IC50 values are mean ± standard deviation from a biological […]
General cell culture protocol
HEK293T cells were grown to confluency at 37 °C under a 5% CO2 atmosphere in Dulbecco’s Modified Eagle’s Medium (DMEM) with a high glucose concentration (Capricorn Scientific, DMEM-HPXA) that was supplemented with 10% fetal calf serum, 0.1% (w/v) penicillin/streptomycin and 1% (v/v) Glutamax. Cells were passaged twice a week to new round polystyrene (PS) tissue culture dishes (Sarstedt) by detachment off the former culture plates by careful pipetting. To prepare cell pellets for activity measurements, plates were grown to confluency and harvested in phosphate buffered saline (PBS). After centrifugation at 1500 rpm for 5 min, the remaining PBS was aspirated and the cells were resuspended in fresh PBS. The concentration of the resulting suspension was then counted using a TC20 automated cell counter (BioRad). Aliquots were centrifuged at 2000 rpm for 5 min and the resulting cell pellets were stored at -80 °C until further use.
4-MU activity assay protocol for human GH38 α-mannosidases
HEK293T cells stably overexpressing human GH38 α-mannosidases MAN2A1, MAN2A2, MAN2B1, MAN2B2 and MAN2C1 were prepared as previously described[11] and were kindly donated by Dr. C. L.
Kuo. Homogenates were prepared by sonicating cell pellets (Sonics VibraCell, 5x1 s with 30 s interval at 20% amplitude) in 150 mM McIlvain buffer of pH 5.5 (MAN2A1, MAN2A2), pH 4.5 (MAN2B1, MAN2B2) or pH 6.7 (MAN2C1) containing either 2 mM ZnCl2 (MAN2A1, MAN2A2, MAN2B1, MAN2B2) […]

SMILES strings stand for the structures.

Broadly, the IC50 is the midpoint of a concentration-inhibition curve. Read a low IC50 as inhibition by little substance.

For the compound `O=S1(=O)N[C@@H]2[C@@H](O)[C@@H](O)[C@H](O)[C@@H](CO)[C@H]2O1` [compound 6, 1,6-trans-manno-cyclosulfamidate], the “activity when the buffer was enriched with CoCl2” value (CoCl2) was “no activity”. The 50% inhibitory concentration (IC50) (Zn2+) is above 1000 µM.

The record behind these values is publication PMC10685318, “Trans-cyclosulfamidate mannose-configured cyclitol allows isoform-dependent inhibition of GH47 α-D-mannosidases through a bump–hole strategy” (Chemical Science, 2023).
